Measurements as given in publication PMC7607624 (Journal of nuclear medicine : official publication, Society …, 2013).

Experiments:
[1] = parameters: species or system human; conditions: in vivo
[2] = parameters: species or system human; conditions: in vivo; remark: listed apart in the source
[3] = parameters: species or system human; conditions: in vivo; remark: listed apart in the source
[4] = parameters: species or system human; conditions: in vivo, iv
[5] = human, in vivo

- Normalized number of disintegrations, Brain [1]: 0.0089±0.0038 MBq-h/MBq administered
- Normalized number of disintegrations, Breasts [1]: 0.015±0.0047 MBq-h/MBq administered
- Normalized number of disintegrations, Heart Contents [1]: 0.026±0.0036 MBq-h/MBq administered
- Normalized number of disintegrations, Kidneys [1]: 0.059±0.017 MBq-h/MBq administered
- Normalized number of disintegrations, Liver [1]: 0.064±0.024 MBq-h/MBq administered
- Normalized number of disintegrations, Remainder [1]: 0.82±0.14 MBq-h/MBq administered
- Normalized number of disintegrations, Spleen [1]: 0.0090±0.0024 MBq-h/MBq administered
- Normalized number of disintegrations, Testes [1]: 0.0057±0.0017 MBq-h/MBq administered
- Normalized number of disintegrations, Urinary Bladder Wall (1.0-hr) [1]: 0.29±0.033 MBq-h/MBq administered
- Normalized number of disintegrations, Urinary Bladder Wall (4.8-hr) [1]: 1.1±0.13 MBq-h/MBq administered
- parent tracer in urine [2]: 21%
- Estimated organ dose per unit administered activity, Brain [3]: 2.4±0.6 μGy/MBq
- Estimated organ dose per unit administered activity, Breasts [3]: 7.7±3.6 μGy/MBq
- Estimated organ dose per unit administered activity, Heart Wall [3]: 10±0.8 μGy/MBq
- Estimated organ dose per unit administered activity, Kidneys [3]: 39±10 μGy/MBq
- Estimated organ dose per unit administered activity, Thymus [3]: 4.8±0.7 μGy/MBq
- Estimated organ dose per unit administered activity, Thyroid [3]: 4.2±0.7 μGy/MBq
- adult female phantom doses, higher than adult male phantom [3]: 20–34%
- clearance half-time of activity from blood pool / plasma ([4]; human): ~ 30 minutes
- percentage of plasma-borne activity in the form of 18F-CP-18 [4]: 99%
- bladder uptake (percent administered activity) [5]: 16-27%
- kidney uptake (percent administered activity) [5]: 3.5-11%
- liver uptake (percent administered activity) [5]: 3.2-5.7%
- mean SUV, bladder [5]: approximately 65
- mean SUV, heart [5]: ~1.5
- mean SUV, kidneys [5]: ~6
- mean SUV, liver [5]: ~1.5
- renal system (kidneys and bladder together) uptake [5]: 22-31%
Substance: (18S,21S,24S,27S,30S)-27-(2-carboxyethyl)-21-(carboxymethyl)-30-((2S,3R,4R,5R,6S)-6-((2-(4-(3-[F18]fluoropropyl)-1H-1,2,3-triazol-1-yl)acetamido)methyl)-3,4,5-trihydroxytetrahydro-2H-pyran-2-carboxamido)-24-isopropyl-18-methyl-17,20,23,26,29-pentaoxo-4,7,10,13-tetraoxa-16,19,22,25,28-pentaazadotriacontane-1,32-dioic acid [18F-CP-18]
- crossing of the blood-brain barrier [5]: did not appreciably cross the blood-brain barrier
